According to patent US10696615B2, “Prenylated hydroxystilbenes” (The University of Sydney, priority 2011, dated 2020):

Experiments:
Type in all cases: cell-based, human
CCRF-CEM = test: NCI in vitro cancer screen, Leukemia
K-562 = test: NCI in vitro cancer screen, Leukemia; details: K-562
A549/ATCC = test: NCI in vitro cancer screen, Non-Small Cell Lung Cancer
NCI-H23 = test: as above; details: NCI-H23
NCI-H322M = test: as above
NCI-H460 = test: as above; details: NCI-H460
HT29 = test: NCI in vitro cancer screen, Colon Cancer; details: HT29
KM12 = test: NCI in vitro cancer screen, Colon Cancer; details: KM12
SW-620 = test: NCI in vitro cancer screen, Colon Cancer; details: SW-620
SF-295 = test: NCI in vitro cancer screen, CNS Cancer; details: SF-295
SNB-19 = test: NCI in vitro cancer screen, CNS Cancer; details: SNB-19
SNB-75 = test: NCI in vitro cancer screen, CNS Cancer; details: Homo sapiens, SNB-75
U251 = test: NCI in vitro cancer screen, CNS Cancer; details: U251
MDA-MB-435 = test: NCI in vitro cancer screen, Melanoma; details: MDA-MB-435
SK-MEL-2 = test: NCI in vitro cancer screen, Melanoma; details: SK-MEL-2
SK-MEL-28 = test: NCI in vitro cancer screen, Melanoma; details: SK-MEL-28
SK-MEL-5 = test: NCI in vitro cancer screen, Melanoma; details: SK-MEL-5
UACC-62 = test: NCI in vitro cancer screen, Melanoma; details: UACC-62
OVCAR-3 = test: NCI in vitro cancer screen, Ovarian Cancer; details: OVCAR-3
OVCAR-5 = test: NCI in vitro cancer screen, Ovarian Cancer; details: OVCAR-5
OVCAR-8 = test: NCI in vitro cancer screen, Ovarian Cancer; details: OVCAR-8
SK-OV-3 = test: NCI in vitro cancer screen, Ovarian Cancer; details: SK-OV-3
ACHN = test: NCI in vitro cancer screen, Renal Cancer
RXF-393 = test: NCI in vitro cancer screen, Renal Cancer; details: RXF-393
TK-10 = test: NCI in vitro cancer screen, Renal Cancer; details: TK-10
UO-31 = test: NCI in vitro cancer screen, Renal Cancer; details: UO-31
PC-3 = test: NCI in vitro cancer screen, Prostate Cancer; details: PC-3
DU-145 = test: NCI in vitro cancer screen, Prostate Cancer; details: DU-145
MCF7 = test: NCI in vitro cancer screen, Breast Cancer; details: MCF7
T-47D = test: NCI in vitro cancer screen, Breast Cancer
MDA-MB-468 = test: NCI in vitro cancer screen, Breast Cancer; details: MDA-MB-468
[1] = Homo sapiens, read-out: LC50 (the source's name)

With `COc1cc(O)cc(/C=C/c2ccc(O)c(O)c2)c1CC=C(C)C` [USYDS9, (E)-2-(3-methyl-2-buten-1-yl)-3′,4′,5-trihydroxy-3-methoxystilbene] as the molecule, how does the TGI (CCRF-CEM) read?
Its TGI is over 100 µM.

What about the GI50 (CCRF-CEM; Homo sapiens) of the same molecule?
Its GI50 is 2.14 µM.

And the CC50 (CCRF-CEM; [1])?
Its CC50 is over 100 µM.

What about the GI50 (K-562; Homo sapiens, K562) of the same molecule?
Its GI50 is 0.33 µM.

What about the CC50 (K-562; Homo sapiens, K562, read-out: LC50 (the source's name)) of the same molecule?
The CC50 was over 100 µM.

And the TGI (K-562)?
The TGI was 13.9 µM.

And the TGI (A549/ATCC)?
Its TGI is 41.5 µM.

And the GI50 (A549/ATCC; Homo sapiens)?
The GI50 was 2.62 µM.

What about the CC50 (A549/ATCC; [1]) of the same molecule?
The CC50 was over 100 µM.

And the GI50 (NCI-H23; Homo sapiens)?
The GI50 was 1.43 µM.

And the LC50 (NCI-H23; Homo sapiens)?
Its LC50 is over 100 µM.

What about the TGI (NCI-H23) of the same molecule?
The TGI was over 100 µM.

And the TGI (NCI-H322M)?
Its TGI is over 100 µM.

What about the GI50 (NCI-H322M; Homo sapiens) of the same molecule?
Its GI50 is 0.76 µM.

And the LC50 (50% lethal concentration) (NCI-H322M; Homo sapiens)?
Its LC50 (50% lethal concentration) is over 100 µM.

What about the GI50 (NCI-H460; Homo sapiens) of the same molecule?
Its GI50 is 0.47 µM.

What about the CC50 (NCI-H460; [1]) of the same molecule?
Its CC50 is 75.7 µM.

And the TGI (NCI-H460)?
The TGI was 10.3 µM.

What about the TGI (HT29) of the same molecule?
Its TGI is 46.6 µM.

And the GI50 (HT29; Homo sapiens, HT-29)?
The GI50 was 18.6 µM.

And the CC50 (HT29; Homo sapiens, HT-29, read-out: LC50 (the source's name))?
The CC50 was over 100 µM.

What about the GI50 (KM12; Homo sapiens) of the same molecule?
Its GI50 is 0.52 µM.

What about the CC50 (KM12; [1]) of the same molecule?
Its CC50 is 63.9 µM.

What about the TGI (KM12) of the same molecule?
Its TGI is 12.2 µM.

And the GI50 (SW-620; Homo sapiens)?
Its GI50 is 0.31 µM.

And the CC50 (SW-620; [1])?
Its CC50 is 75 µM.

And the TGI (SW-620)?
The TGI was 15.3 µM.

And the GI50 (SF-295; Homo sapiens)?
The GI50 was 2.6 µM.

What about the CC50 (SF-295; [1]) of the same molecule?
The CC50 was over 100 µM.

And the TGI (SF-295)?
Its TGI is 20.5 µM.

What about the GI50 (SNB-19; Homo sapiens) of the same molecule?
Its GI50 is 0.55 µM.

And the CC50 (SNB-19; [1])?
Its CC50 is over 100 µM.

What about the TGI (SNB-19) of the same molecule?
The TGI was over 100 µM.

And the GI50 (SNB-75)?
Its GI50 is 0.24 µM.

What about the CC50 (SNB-75; read-out: LC50 (the source's name)) of the same molecule?
Its CC50 is over 100 µM.

And the GI50 (U251; Homo sapiens, U-251)?
The GI50 was 0.59 µM.

What about the CC50 (U251; Homo sapiens, U-251, read-out: LC50 (the source's name)) of the same molecule?
The CC50 was over 100 µM.

What about the TGI (U251) of the same molecule?
The TGI was 19.6 µM.

What about the GI50 (MDA-MB-435; Homo sapiens) of the same molecule?
The GI50 was 0.13 µM.

What about the CC50 (MDA-MB-435; [1]) of the same molecule?
Its CC50 is over 100 µM.

What about the TGI (MDA-MB-435) of the same molecule?
The TGI was 0.42 µM.

And the GI50 (SK-MEL-2; Homo sapiens)?
The GI50 was 2.17 µM.

What about the LC50 (SK-MEL-2; Homo sapiens) of the same molecule?
Its LC50 is over 100 µM.

What about the TGI (SK-MEL-2) of the same molecule?
The TGI was 12.1 µM.

And the GI50 (SK-MEL-28; Homo sapiens)?
Its GI50 is 8.14 µM.

What about the LC50 (SK-MEL-28; Homo sapiens) of the same molecule?
The LC50 was over 100 µM.

And the TGI (SK-MEL-28)?
Its TGI is over 100 µM.

And the GI50 (SK-MEL-5; Homo sapiens)?
The GI50 was 0.39 µM.

What about the CC50 (SK-MEL-5; [1]) of the same molecule?
The CC50 was over 100 µM.

And the TGI (SK-MEL-5)?
Its TGI is 2.52 µM.

And the GI50 (UACC-62; Homo sapiens)?
The GI50 was 3.22 µM.

What about the CC50 (UACC-62; [1]) of the same molecule?
The CC50 was over 100 µM.

And the TGI (UACC-62)?
The TGI was 34.8 µM.

And the GI50 (OVCAR-3; Homo sapiens)?
The GI50 was 0.9 µM.

What about the CC50 (OVCAR-3; [1]) of the same molecule?
The CC50 was 24.8 µM.

And the TGI (OVCAR-3)?
The TGI was 3.84 µM.

What about the GI50 (OVCAR-5; Homo sapiens) of the same molecule?
The GI50 was 30.7 µM.

And the CC50 (OVCAR-5; [1])?
Its CC50 is over 100 µM.

And the TGI (OVCAR-5)?
The TGI was over 100 µM.

And the GI50 (OVCAR-8; Homo sapiens)?
The GI50 was 0.5 µM.

And the CC50 (OVCAR-8; [1])?
The CC50 was over 100 µM.

What about the TGI (OVCAR-8) of the same molecule?
The TGI was 38.3 µM.

What about the GI50 (SK-OV-3; Homo sapiens) of the same molecule?
The GI50 was 0.5 µM.

What about the CC50 (SK-OV-3; [1]) of the same molecule?
Its CC50 is over 100 µM.

What about the TGI (SK-OV-3) of the same molecule?
The TGI was 5.12 µM.

And the TGI (ACHN)?
Its TGI is over 100 µM.

And the GI50 (ACHN; Homo sapiens)?
Its GI50 is 0.66 µM.

What about the CC50 (ACHN; [1]) of the same molecule?
Its CC50 is over 100 µM.

What about the GI50 (RXF-393; Homo sapiens) of the same molecule?
Its GI50 is 0.23 µM.

And the CC50 (RXF-393; [1])?
Its CC50 is over 100 µM.

What about the TGI (RXF-393) of the same molecule?
Its TGI is 0.63 µM.

What about the GI50 (TK-10; Homo sapiens) of the same molecule?
Its GI50 is 5.34 µM.

And the LC50 (TK-10; Homo sapiens)?
The LC50 was over 100 µM.

And the TGI (TK-10)?
The TGI was 41.2 µM.

And the GI50 (UO-31; Homo sapiens)?
Its GI50 is 0.46 µM.

What about the CC50 (UO-31; [1]) of the same molecule?
The CC50 was over 100 µM.

What about the TGI (UO-31) of the same molecule?
Its TGI is over 100 µM.

And the GI50 (PC-3; Homo sapiens)?
Its GI50 is 2.92 µM.

And the CC50 (PC-3; [1])?
The CC50 was over 100 µM.

And the TGI (PC-3)?
Its TGI is over 100 µM.

And the TGI (DU-145)?
The TGI was 2.62 µM.

And the GI50 (DU-145; Homo sapiens)?
The GI50 was 0.35 µM.

What about the CC50 (DU-145; [1]) of the same molecule?
Its CC50 is over 100 µM.

What about the GI50 (MCF7; Homo sapiens) of the same molecule?
Its GI50 is 2.81 µM.

And the CC50 (MCF7; [1])?
The CC50 was over 100 µM.

What about the TGI (MCF7) of the same molecule?
Its TGI is over 100 µM.

And the TGI (T-47D)?
The TGI was 36.9 µM.

And the GI50 (T-47D; Homo sapiens, T47D)?
Its GI50 is 4.78 µM.

What about the CC50 (T-47D; Homo sapiens, T47D, read-out: LC50 (the source's name)) of the same molecule?
Its CC50 is over 100 µM.

What about the GI50 (MDA-MB-468; Homo sapiens) of the same molecule?
Its GI50 is 2.42 µM.

What about the CC50 (MDA-MB-468; [1]) of the same molecule?
Its CC50 is over 100 µM.

What about the TGI (MDA-MB-468) of the same molecule?
The TGI was 8.48 µM.
